Source: publication PMC9928118, “Funneling modulatory peptide design with generative models: Discovery and characterization of disruptors of calcineurin protein-protein interactions” (PLOS Computational Biology, 2023)

How the values were obtained:
GST-tagged Cn [1] = experiment: PEPperPRINT peptide microarray binding assay with GST-tagged Cn; conditions: max over the duplicate spots (Location on chip)
GST-tagged Cn [2] = experiment: as above; conditions: GST-tagged Cn, mean over the duplicate spots (Location on chip)
Procedure, shortened: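 Qualitative binding: peptides printed on a PEPperPRINT microarray were incubated overnight at 4 °C with 1 mg/ml GST-tagged Cn, then detected with Alexa-Fluor 647 anti-GST antibody. Log fluorescence was baseline-corrected, averaged over duplicate spots, Z-normalized and averaged across five repeats.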

Sequence	Chip Fluorescence (max) (GST-tagged Cn [1])	Chip Fluorescence (mean) (GST-tagged Cn [2])
ESRYRRFRQFQAPKVD [Seqshuffled_9523]	2.434	1.1019
PSIYQEVLGIGNFSLS [SeqRBMlowT_4899]	2.16	0.7614
HVSSSPDVTLKPPQHR [SeqRBMlowT_2147]	2.217	0.4725
TFWTNPQYRLKLEEPD [SeqRBMlowT_264]	2.584	0.9748
TFWTNPQYKITLEDPD [SeqRBMlowT_219]	2.355	1.018
KKMSPPCISVHPPDED [SeqRBMlowT_7695]	2.045	0.511
ADEAVPLIDIAMAEYP [SeqRBM_3950]	2.42	0.7456
GGPSTPGRQNNPLAPS [SeqRTS1_Zymoseptoria_tritici]	2.314	-0.03327
RTYINPFMLFEDMGSR [SeqRBM_7588]	2.523	0.1039
TFWTNPQFVVSLPEED [SeqRBMlowT_8537]	2.16	-0.2871
EPYVAFFYQFSHDPKS [Seqshuffled_9939]	2.266	-0.878
RTYINPFMQFTYDGRR [SeqRBMlowT_4071]	1.896	1.243
QWSLGVGIVITVTETM [SeqRBM_1755]	2.2853	0.7956
TFWTNPQFRITLEEPD [SeqRBMlowT_11]	2.387	0.7438
HPYMGPKIQFHSGGRK [SeqRBM_457]	2.294	0.3342
KNARGPLIIIHPMEED [SeqRBM_1913]	2.283	1.192
SSMAQPAINIDFAPTN [SeqRBMlowT_2450]	2.328	-0.1624
LLDNVPAVHVHDMGGH [SeqRBM_9035]	1.904	0.6608
SFWTNPQFIITLQEED [SeqRBMlowT_7307]	2.363	0.8738
SSLYENALGIESFTLS [SeqRBMlowT_2888]	2.496	0.9732
TFWTNPQYVITLPEED [SeqRBMlowT_4660]	1.913	0.3942
PNKICGQRSFDGEHQN [Seqshuffled_9648]	2.3848	-0.254

Sequence	Chip Fluorescence (max) (GST-tagged Cn [1])	Chip Fluorescence (mean) (GST-tagged Cn [2])
GGPGTPSRQGQTAAPS [SeqRBM_5534]	2.523	-0.2851
LRDEVPEVRLNIISDL [SeqRBM_180]	2.2011	-0.2367
TFWSNPQFKITLEEPD [SeqRBMlowT_5528]	2.1472	0.877
TFWSNPQFRLKLEDPD [SeqRBMlowT_6883]	2.274	1.226
RQPGQALLELRGHSAS [SeqRBMlowT_7735]	2.013	0.19
PMKTRGLYGWPPCAKW [Seqrandom_5226]	2.284	0.996
RQPGSPVLELSGHSAN [SeqRBMlowT_5862]	2.053	0.5615
ASSANPEITVTPAELP [SeqRBMlowT_4424]	2.528	0.4111
RSKFIPKLSLQSPVHH [SeqRBMlowT_1791]	2.2877	0.1659
RFYINPFVQFSDGGNN [SeqRBM_1053]	2.558	-0.5027
TFWSNPQYRITLEDPD [SeqRBMlowT_78]	2.0958	0.4904
RAYINPFMQFTFDSNK [SeqRBMlowT_4738]	2.119	0.6521
TFWTNPQYKITLEDED [SeqRBMlowT_7336]	2.0782	1.363
YCQWSNRATQIGHKPT [Seqrandom_9979]	2.027	-0.2818
RNPESPVLELEGHSAS [SeqRBMlowT_6180]	1.97	0.5231
NNLAINDVTAGDRGCY [SeqRBM_1373]	2.1787	1.818
PGQMQPSINVMAEKNP [SeqRBM_977]	1.973	-0.5544
TFNNNPQATVRRTDID [SeqRBM_1961]	1.877	0.6511
GTDLRQQTAAQPNDGA [Seqshuffled_4362]	2.523	0.6141
SSSAAPEIVVSKPEHN [SeqRBMlowT_9785]	2.217	-0.01901
TFWMNPQYRITLEEPD [SeqRBMlowT_2265]	2.207	0.1767
RAYDNPVFSFTFDSKG [SeqRBM_7566]	2.445	0.4256

Sequence	Chip Fluorescence (max) (GST-tagged Cn [1])	Chip Fluorescence (mean) (GST-tagged Cn [2])
KSKRIPKLSVVSPVHH [SeqRBM_6422]	2.115	0.728
RAYKNPFMQFDLDSSL [SeqRBM_8076]	2.512	1.346
STPLPQGAPISPNTLA [Seqshuffled_9522]	2.383	-0.4537
LMDLCPVVRLQIISAL [SeqRBM_7616]	2.223	0.2546
LSSSNPEITVTPAELD [SeqRBMlowT_6234]	1.968	-0.4808
RTYINPFMQFNRGGRK [SeqRBM_3856]	2.196	0.8441
KKMSPPCITITPAPGA [SeqRBMlowT_7625]	2.125	-0.7518
RNPGTFLLTLRGHKKQ [SeqRBMlowT_5813]	2.447	1.08
VEALSSRYGMATNLTG [Seqshuffled_4257]	2.043	0.2313
GSLLIPHCDMSAGGSY [SeqRBM_2528]	2.002	-0.05077
KKMAPPAINIDPAPTN [SeqRBMlowT_321]	2.529	-0.1981
ASEANPEITVTPAELP [SeqRBMlowT_1250]	2.513	-0.04845
KAYMCPYGSFTYGGRR [SeqRBM_3412]	2.568	0.9697
YTQIFPKCAMTIIKRK [Seqrandom_9966]	2.341	0.5369
PSHSIPKHSWESAVEH [SeqRBM_3394]	2.053	-0.5716
DCIGFCSVPVMYAPNH [Seqrandom_1239]	2.175	-0.3019
LSLYVNALGMESFTIS [SeqRBM_9141]	2.172	0.3343
TFWTNPQFRVHLEDED [SeqRBMlowT_4265]	1.93	1.067
RNPESPVLELEGHSSP [SeqRBMlowT_6390]	2.243	1.113
TFFINPQFKASLTEMD [SeqRBM_564]	2.053	0.5882
GAYMCPFMSWQDCGQR [SeqRBMlowT_4796]	2.042	0.4498
WPWCRHPKKRNWLNWH [Seqrandom_9939]	2.4643	1.3152
